Laboratory results reported in ChEMBL document CHEMBL1777675, “N-hydroxy-N'-aminoguanidines as anti-cancer lead molecule: QSAR, synthesis and biological evaluation” (Bioorg Med Chem Lett, 2011).

Experiments:
L1210 = assay: Cytotoxicity against mouse L1210 cells after 65 hrs by MTS/PES microculture tetrazolium assay; assay type: functional, cell-based; conditions: L1210, 65 h
[1] = Cytotoxicity against african green monkey Vero cells; assay type: cell-based; conditions: chlorocebus sabaeus
HL-60 = assay: Anticancer activity against human HL60 cells; assay type: functional, cell-based
[2] = Cytotoxicity against human HeLa cells; assay type: cell-based

| IC50 (HL-60) [µM] | Compound | IC50 (L1210) [µM] | CC50 [1] [µM] | CC50 [2] [µM] |
| --- | --- | --- | --- | --- |
| – | O=C(NO)N/N=C/C1CC2C=CC1C2 (configuration not stated) | 10.6 | – | – |
| – | N/C(=N\O)N/N=C/c1cccc(C(F)(F)F)c1 | 15.1 | – | – |
| – | CS(=O)(=O)Oc1ccc(/C=N/NC(=N)NO)cc1 | 14.8 | – | – |
| 67 | Cc1ccc(/C=N/NC(=N)NO)cc1 | – | > 100 | > 100 |
| > 100 | N=C(NO)N/N=C/c1ccco1 | – | > 100 | > 100 |
| – | Cc1cccc(/C=N/N=C(\N)NO)n1 | 42.1 | – | – |
| – | COc1cccc(/C=N/NC(=N)NO)c1 | 16 | – | – |
| > 100 | N=C(NO)N/N=C/c1ccc(O)cc1 | – | > 100 | > 100 |
| 95 | N/C(=N\O)N/N=C/c1ccccc1O | – | > 100 | > 100 |
| – | N/C(=N\O)N/N=C/c1cccc(I)c1 | 12.5 | – | – |
| – | CC(C)c1ccc2c(c1)C(=O)C(/C=N\NC(=O)NO)=CC2 | 32.2 | – | – |
| > 100 | COc1ccc(/C=N/NC(=N)NO)cc1O | – | > 100 | > 100 |
| > 100 | N=C(NO)N/N=C/c1ccc(Cl)cc1 | – | > 100 | > 100 |
| – | N=C(NN)NO | 126 | – | – |
| > 100 | CN(C)c1ccc(/C=N/NC(=N)NO)cc1 | – | > 100 | > 100 |
| – | N/C(=N\O)N/N=C/c1cccs1 | 34.1 | – | – |

| IC50 (HL-60) [µM] | Compound | IC50 (L1210) [µM] | CC50 [1] [µM] | CC50 [2] [µM] |
| --- | --- | --- | --- | --- |
| – | N=C(NO)N/N=C1\C(=O)Nc2ccccc21 | 48.4 | – | – |
| 62 | N=C(NO)N/N=C/c1ccccc1 | – | > 100 | > 100 |
| – | CCCCCCOc1ccc(/C=N/NC(=N)NO)cc1 | 7.8 | – | – |
| – | CCCCOc1ccc(/C=N/NC(=N)NO)cc1 | 8.53 | – | – |
| – | O=C(NO)N/N=C/C1CCCCC1 | 21.2 | – | – |
| > 100 | COc1ccc(/C=N/NC(=N)NO)cc1 | – | > 100 | > 100 |
| – | O=C(NO)N/N=C\C1=CCc2c(Cl)cc(Cl)cc2C1=O | 28.2 | – | – |
| – | Cc1ccsc1/C=N/N=C(/N)NO | 33.2 | – | – |
| 11 | N=C(NO)N/N=C/c1c2ccccc2cc2ccccc12 | – | > 100 | > 100 |
| – | N=C(NO)N/N=C/c1cc2ccccc2cn1 | 3.3 | – | – |
| 60 | N=C(NO)N/N=C/c1ccccc1Cl | – | > 100 | > 100 |
| > 100 | Cc1ccccc1/C=N/NC(=N)NO | – | > 100 | > 100 |
| > 100 | COc1ccccc1/C=N/N=C(\N)NO | – | > 100 | > 100 |
| – | N/C(=N/N=C/c1ccccn1)NO | 10.9 | – | – |
| – | Cc1ccn(C)c1/C=N/NC(=N)NO | 2.7 | – | – |
